We go through 77 compounds from the METLIN SMRT retention time set (Domingo-Almenara et al. 2019).

Molecules are shown by their SMILES.

The data set can be described thus: gradient 5% acetonitrile 3 min, to 50% in 2 min, to 85% in 15 min, held 3 min, 100 µL/min. Particulars: column: Zorbax Extend-C18 2.1 x 50 mm; eluents: water / acetonitrile, 0.1% formic acid. The method in brief:
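Data were gathered over 3 months by HPLC coupled to a quadrupole time-of-flight mass spectrometer, operated in positive and negative ionization mode. Mixtures of ~100 pure standards ran on a Zorbax Extend-C18 column (2.1 × 50 mm, 1.8 μm) at 100 μL/min, with water and acetonitrile each containing 0.1% formic acid and dead and dwell volumes of 40 μL and 900 μL. Retention time was read from adduct peaks picked by computer and checked manually.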
Turning to `Cc1ccc2c(ccn2CCNC(=O)C2CC(=O)N(c3n[nH]c4ccccc34)C2)c1` (configuration not stated), the RP-LC retention time was determined as 766 s. `CC(=O)N(C1CCOCC1)C1CCN(C(=O)Nc2ccccc2)CC1` returned an RP-LC retention time of 655 s. Compound `O=C1CCN(S(=O)(=O)c2ccccc2)CCCN(S(=O)(=O)c2cccc(F)c2)CCN1` returned an RP-LC retention time of 795 s.

The compound `CON(C)C(=O)N1N=C(c2cc(F)ccc2F)S[C@@]1(CCCN)c1ccccc1` came in with an RP-LC retention time of 792 s.

Take `CC1(C)O[C@H]2CC(=O)OC[C@]23[C@H]2CC[C@@]4(C)[C@H](c5ccoc5)OC(=O)C5O[C@]54[C@]2(C)C(=O)C[C@@H]13` (some centres not stated): the RP-LC retention time worked out at 918 s. The result for `CCn1ccc2sc(C)c(C(=O)NCc3ccc(OC)cc3OC)c2c1=O` reads 814 s; that for `CC(C)n1cnc(S(=O)(=O)N2CCCC(C(=O)N3CCN(c4ccccc4)CC3)C2)c1` (configuration not stated), 766 s; that for `Cc1ccc(CNC(=O)C2(C)CCCN(C(=O)Nc3ccc(Br)cc3)C2)cc1` (configuration not stated), 1040 s. In turn, `CCS(=O)(=O)NCCc1csc(C)n1` showed an RP-LC retention time of 572 s. The result for `O=C(Nc1c(F)cccc1F)N1CC(c2nc(Cc3ccccc3)no2)C1` reads 753 s.

For `CCc1cccc(C)c1NC(=O)C1CCCN(S(=O)(=O)c2ccc(OC)c(Cl)c2)C1` (configuration not stated), the RP-LC retention time was 1020 s. The compound `Cc1ccc(-c2nc(NC(=O)c3cc(C)on3)sc2C)c(C)c1` came in with an RP-LC retention time of 1120 s. Next, `Cc1ccc(-n2nc(C(=O)N3CCN(c4ccccn4)CC3)c3c4ccccc4n(C)c3c2=O)cc1`: 705 s; `NS(=O)(=O)c1ccc(CCNC(=O)c2cn3cc(Cl)ccc3n2)cc1`: 660 s; `C=CCSC(CC)(CC)C(N)=O`: 805 s.

`Cc1cc(CN2CCC(CNC(=O)c3ccc(S(=O)(=O)N(C)C)cc3)CC2)c(C)o1`: the RP-LC retention time was determined as 574 s. `CC1(C)Cc2cccc(OCC(=O)Nc3ncc([N+](=O)[O-])s3)c2O1` returned an RP-LC retention time of 906 s. The compound `COCCN1C(=O)Cc2ccccc2C1C(=O)N1CCN(c2ccccc2Cl)CC1` (configuration not stated) registered an RP-LC retention time of 904 s.

`Cc1ccc(S(=O)(=O)N2CCC(CC(=O)NC(C)Cc3ccco3)CC2)cc1` (configuration not stated) yielded an RP-LC retention time of 907 s. The result for `COc1ccc(N2CCN(C(=O)C3CCCN(C(=O)c4[nH]c(C)cc4C)C3)CC2)cc1` (configuration not stated) reads 763 s.

`Cc1oc(C2CCN(S(=O)(=O)c3ccc(C#N)cc3)CC2)nc1C(=O)N(C)C` had an RP-LC retention time of 762 s.

Turning to `Cc1ccc(-c2nc3ccccn3c2NC(=O)Nc2cccc(C)c2)cc1`, the RP-LC retention time came to 716 s.

Compound `COc1ccc(-c2noc(CN3C(=O)C(C)Oc4ccccc43)n2)c(OC)c1` (configuration not stated) returned an RP-LC retention time of 956 s.

`CCc1ccc(S(=O)(=O)N2CCc3nc(-c4ccc(F)cc4)ncc3C2)cc1`: the RP-LC retention time is 1190 s. Next, `CCOc1ccccc1NC(=O)Cn1nc(N2CCSCC2)c2ccccc2c1=O`: 929 s; `Cc1ccc(NC(=O)C2CCN(S(=O)(=O)c3c(C)[nH]c(C)c3C(=O)N3CCCC3)CC2)cc1`: 723 s; `Cc1ccc(N2C(=O)C3N=NN(Cc4nc(-c5ccc(OC(C)C)cc5)no4)C3C2=O)cc1Cl` (configuration not stated): 1170 s. In the case of `COC(=O)C(NC(=O)Nc1cccn2c(C)nnc12)c1ccccc1` (configuration not stated), the RP-LC retention time was determined as 678 s. Next, `CC(C)c1ccc(S(=O)(=O)N2CCCC2c2nc(-c3ccc(Cl)cc3)no2)cc1` (configuration not stated): 1360 s; `Cc1ccc(CN2CCN(C3CCN(C(=O)Nc4ccc(F)cc4F)CC3)C(=O)C2=O)cc1`: 748 s; `Cc1cc2n(n1)CCCN2C(=O)CCC(=O)N1CCN(c2cc(Cl)ccc2C)CC1`: 852 s. The result for `Cc1noc([C@@H]2CN(Cc3cc(F)ccc3F)C[C@H]2CO)n1` reads 576 s; that for `Cc1cc(C)n(Cc2nc(-c3ccc(NC(=O)C(C)C)cc3)oc2C)n1`, 816 s. The result for `CCc1ccc(S(=O)(=O)c2cnc(N3CCN(C4CCCCC4)CC3)nc2N)cc1` reads 706 s; that for `COc1cc(NC(=O)Cn2nc(N3CCCC(C)C3)c3ccccc3c2=O)cc(OC)c1` (configuration not stated), 1100 s; that for `CC(C)CNC(=O)C1(CCO)CCN(Cc2ccccc2)C1` (configuration not stated), 589 s. Compound `CCc1cccc(NC(=O)Cn2nc(N3CCSCC3)c3ccccc3c2=O)c1` came in with an RP-LC retention time of 940 s.

In turn, `O=S(=O)(c1ccc(-c2nnc(C3CCC3)o2)o1)N1CCN(c2ccccc2)CC1` returned an RP-LC retention time of 1090 s.

For the compound `Cc1cccc(NC(=O)c2nc3ccccc3[nH]c2=O)c1`, the RP-LC retention time worked out at 771 s. In the case of `Cc1nnc2ccc(N3CCC(C(=O)NCCCOC(C)C)CC3)nn12`, the RP-LC retention time was found to be 643 s. The result for `CCN1C(=O)COc2ccc(-c3noc(Cc4cccc(OC)c4)n3)cc21` reads 1000 s; that for `COc1ccc(N2CCN(C(=O)C3CCCN(c4nnc5cccc(C)n45)C3)CC2)cc1` (configuration not stated), 661 s.

As to `Clc1ccc2nc(Nc3ncccn3)nc(-c3ccccc3)c2c1`, the RP-LC retention time is 747 s.

Compound `CCC1CCCCN1C(=O)CSc1n[nH]c(-c2ccccc2)n1` (configuration not stated) came in with an RP-LC retention time of 819 s. Take `NC(=O)C1CCN(C(=O)c2ccc3c(c2)CCCN3S(=O)(=O)c2ccc(Cl)cc2)CC1`: the RP-LC retention time was found to be 741 s.

Consider `COc1ccc(NC(=O)NCC23CCC=C2N(CC2CC2)C(=O)CC3)cc1` (configuration not stated), for which the RP-LC retention time worked out at 813 s. The result for `COc1cc(NC(=O)Cn2c(C)cc(-c3nnc(C4CC4)o3)c2C)cc(OC)c1` reads 829 s. The result for `Cc1[nH]c(C)c(S(=O)(=O)N2CCC(C(=O)Nc3ccccc3F)CC2)c1C(=O)N1CCCC1` reads 720 s; that for `COCCNc1ncc(C(=O)O)c(-c2cccc(C)c2)n1`, 700 s. `CCn1c(=O)c(N2CCCC(C(=O)NCc3cccc(Br)c3)C2)nc2ccccc21` (configuration not stated) returned an RP-LC retention time of 1080 s.

Compound `O=C(Cn1c2ccccc2c2ncn(Cc3nc(C4CC4)no3)c(=O)c21)NC1CCCCC1` gave an RP-LC retention time of 834 s. `Cc1cc(-n2nc(C)cc2C)n2nc(-c3ccc(Cl)cc3)c(C)c2n1`: the RP-LC retention time was 1170 s.

As to `CC(C)C(=O)Nc1cc2c(cc1S(=O)(=O)c1ccc(F)cc1)n(C)c(=O)n2C`, the RP-LC retention time is 790 s. Regarding `COC(=O)c1ccccc1NC(=O)c1c(O)c2cccnc2n(-c2ccc(F)cc2)c1=O`, the RP-LC retention time was 1180 s.

`COc1ccc(Cl)cc1N1CC(c2nc(-c3ccc4c(c3)OCO4)no2)CC1=O` (configuration not stated): the RP-LC retention time was 941 s. In the case of `CCn1ccc(C(=O)Nc2ccc3ncnc(N4CCCC4)c3c2)n1`, the RP-LC retention time is 616 s.

The compound `COc1ccc(C(=O)CC(SCCO)c2ccc(Cl)cc2)cc1` (configuration not stated) had an RP-LC retention time of 866 s. Next, `COc1ccccc1-c1noc(C2CCCN2C(=O)c2cc(F)ccc2F)n1` (configuration not stated): 968 s; `COc1ccc(-c2c(C)noc2NC(C)=O)cc1S(=O)(=O)Nc1ccc(F)c(Cl)c1`: 803 s; `CN(CCc1noc(C2CN(Cc3c(F)cccc3Cl)C2)n1)S(C)(=O)=O`: 594 s. The result for `CCOc1ccc(NC(=O)N2CCC(c3nc(C(=O)N4CCCC4)c(C)o3)CC2)cc1` reads 764 s. The result for `O=C(Nc1ccc2c(c1)CN(C(=O)c1ccccc1)CC2)c1ccc(Br)o1` reads 819 s; that for `CCn1nccc1C(=O)NCCn1c(=O)n(Cc2ccc(F)cc2)c2cccnc21`, 729 s; that for `O=C(C1CCN(c2nn3c(=O)c4c(nc3s2)CCCC4)CC1)N1CCN(c2ncccn2)CC1`, 672 s. `O=C([C@@H]1C[C@H](F)CN1S(=O)(=O)c1cccc(Cl)c1)N1CCc2ccccc2C1` had an RP-LC retention time of 927 s. Take `Cc1ccc(S(=O)(=O)N2CCc3c(c(-c4nnc(-c5ccccc5)o4)nn3C)C2)c(C)c1`: the RP-LC retention time stood at 1020 s. Next, `O=C(Nc1cc(F)cc(F)c1)N1CCC(CCNC(=O)C2(c3ccccc3)CC2)CC1`: 984 s; `CCc1cc(-c2csc(S(=O)(=O)N3CCN(c4cccc(Cl)c4)CC3)c2)on1`: 1200 s. In the case of `CCCn1cc(CCNS(=O)(=O)c2ccc(Cl)s2)c2cccnc21`, the RP-LC retention time was determined as 899 s. On to `Cc1ccc2c(c1)N(C(=O)CCC(=O)NCCCN1CCC(N3CCCCC3)CC1)CC(C)O2` (configuration not stated), for which the RP-LC retention time was determined as 576 s.

In turn, `CC(C)(C)c1ccc(OCC(=O)Nc2ccc(CC(=O)N3CCOCC3)cc2)cc1` showed an RP-LC retention time of 870 s. Next, `Cc1nc2cc(N3CC(C(=O)Nc4ccc(Cl)cc4F)CC3=O)ccc2o1` (configuration not stated): 787 s. In turn, `CCc1onc(C)c1C1CCCN1C(=O)Nc1ccc(Cl)cc1` (configuration not stated) returned an RP-LC retention time of 873 s. Next, `Cc1cccc(NC(=O)COc2ccc(-c3cnc4ccccc4n3)cc2)n1`: 911 s. Next, `COc1ccc(Cn2cccc(S(=O)(=O)N3CCCC3)c2=O)cc1F`: 843 s; `Cc1cc(Br)ccc1NC(=O)Cn1cnc2c(nc3n2CCCCC3)c1=O`: 711 s. Next, `Cc1nnc2c(=O)n(CC(=O)NC(C)c3ccc(F)cc3)c3cccnc3n12` (configuration not stated): 677 s.
